Results published in US20230210834A1, “RNA METHYLTRANSFERASE INHIBITOR, SCREENING METHOD THEREFOR, ANTI-CANCER AGENT EFFICACY ASSESSMENT MARKER, AND KIT FOR EFFECTIVELY PREDICTING FTSJ1 INHIBITOR” (National University Corporation Okayama University, priority 2019, published 2023).

Key:
FTSJ1 = target: T1, FTSJ1 (Homo sapiens, UniProt Q9UET6); test: Screening test: FLAG-FTSJ1 transmethylation of total RNA, SAM to SAH conversion measured with MTase-Glo luminescence; assay type: biochemical; conditions: 10 ng/reaction FLAG-FTSJ1, 1,000 ng/reaction total RNA, different concentrations; FIG. 3B
T1 construct: made in house; host or cells: HEK293 cells stably expressing FLAG-tagged FTSJ1
T1 sequence (Q9UET6 1-329): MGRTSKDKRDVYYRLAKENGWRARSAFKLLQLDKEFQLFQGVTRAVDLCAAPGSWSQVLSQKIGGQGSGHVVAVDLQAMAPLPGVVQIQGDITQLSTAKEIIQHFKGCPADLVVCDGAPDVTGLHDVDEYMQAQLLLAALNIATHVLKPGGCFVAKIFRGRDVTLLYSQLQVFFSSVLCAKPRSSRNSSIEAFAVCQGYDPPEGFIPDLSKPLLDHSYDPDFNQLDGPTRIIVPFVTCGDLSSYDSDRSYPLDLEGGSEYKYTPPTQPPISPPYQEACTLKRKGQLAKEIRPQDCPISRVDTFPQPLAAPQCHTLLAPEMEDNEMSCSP
Protocol: HEK293 human embryonic kidney cells that constantly express FLAG-tagged FTSJ1 were produced, and from its cell lysate, FLAG-FTSJ1 was separated by adsorption using an anti-FLAG M2 antibody affinity gel (Sigma-Aldrich Co. LLC, catalog number: A2220-10ML), and eluted with FLAG peptide (Sigma-Aldrich Co. LLC, catalog number: F3290-25MG). After measuring the protein concentration in the eluate, serial dilutions were performed within the range of 0 to 20 ng/reaction to obtain enzyme dilutions of 12 different concentrations. Further, the total RNA was extracted from HEK293-FTSJ1-KO cells, in which FTSJ1 was knocked out, using TRIzol Reagent (Thermo Fisher Scientific Inc., catalog number: 15596018). […] The conversion reaction from SAM (s-adenosyl methionine) to SAH (s-adenosyl homocysteine), which occurred when FLAG-FTSJ1 in each dilution methylated 1,000 ng/reaction of the total RNA, was measured as a luciferase luminescence value using MTase-Glo Reagent in the assay kit. Taking the luminescence value at the time when FLAG-FTSJ1 was 0 ng as a background value, a graph was drawn using the numerical values obtained by subtracting the background value from the luminescence value at each dilution step. […]

[1] = system: triple-negative breast cancer cell line MDA-MB-231; test: Anti-tumor effect evaluation test in MDA-MB-231 tumor model mice; assay type: in vivo, immunodeficient mice (BALB/c-nu/nu); conditions: 20 mg/kg intraperitoneally every other day in corn oil; FIG. 1 and 2
Protocol: A cell suspension (1×10^6 cells/100 μL), in which triple-negative breast cancer cell line MDA-MB-231 was suspended in phosphate buffer (PBS, produced by FUJIFILM Wako Pure Chemical Corporation), was inoculated subcutaneously in the dorsal lumbar region of immunodeficient mice (BALB/c-nu/nu, female, 6 weeks old, purchased from Shimizu Laboratory Supplies Co., Ltd.) using a syringe with a 23 G injection needle (Terumo Corporation). After confirming that the cancer cells engrafted under the skin of the mice to form tumor tissues, and that the tumor volume reached 100 mm^3, the obtained tumor model mice were used for the following evaluation test. First, each compound for evaluation was dissolved in corn oil (produced by Sigma-Aldrich Co., LLC) and administered intraperitoneally. PVZF0024 was administered at 100 mg/kg and PVZF2001 was administered at 20 mg/kg to the tumor model mice every other day. At each administration, the tumor diameter was measured with a caliper. The tumor volume was calculated according to the following formula: V=(3.14×D×d^2)/6 (wherein V is the tumor volume, D is the tumor major axis, and d is the tumor minor axis) (Wu. et al., Clin. Cancer Res., 2013 Oct. 15; 19(20): 5699-5710).

CC(C)c1cc(C(C)C)c(S(=O)(=O)CC2CC(C)(C)CC(C)(C)C2)c(C(C)C)c1 [PVZF2001]
inhibitory effect of transmethylation by FTSJ1 (luminescence value) (FTSJ1): a decrease in the luminescence value was observed in a concentration-dependent manner | antitumor effect (tumor growth, tumor volume) [1]: significantly inhibit tumor growth
